Counter-ions that a name gives are not always drawn. The source made the active and inactive calls. Rule as the data show it, for most assays here: actives have a measured EC50 and inactives only a lower limit.
Columns and labels:
[1] = molecular target: T1, Heat shock factor protein 1 (Mus musculus, UniProt P38532); assay: decrease of HSF1-responsive luciferase luminescence – cell-based, NIH3T3, dose retest, confirmation (AID 2382); format: functional;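 also: NIH3T3 fibroblasts with HSF1-driven luciferase reporter stressed by proteasome inhibitor MG132; luminescence from HSF1-driven luciferase expression after 8 hours of MG132 stress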
T1 sequence (P38532 whole entry): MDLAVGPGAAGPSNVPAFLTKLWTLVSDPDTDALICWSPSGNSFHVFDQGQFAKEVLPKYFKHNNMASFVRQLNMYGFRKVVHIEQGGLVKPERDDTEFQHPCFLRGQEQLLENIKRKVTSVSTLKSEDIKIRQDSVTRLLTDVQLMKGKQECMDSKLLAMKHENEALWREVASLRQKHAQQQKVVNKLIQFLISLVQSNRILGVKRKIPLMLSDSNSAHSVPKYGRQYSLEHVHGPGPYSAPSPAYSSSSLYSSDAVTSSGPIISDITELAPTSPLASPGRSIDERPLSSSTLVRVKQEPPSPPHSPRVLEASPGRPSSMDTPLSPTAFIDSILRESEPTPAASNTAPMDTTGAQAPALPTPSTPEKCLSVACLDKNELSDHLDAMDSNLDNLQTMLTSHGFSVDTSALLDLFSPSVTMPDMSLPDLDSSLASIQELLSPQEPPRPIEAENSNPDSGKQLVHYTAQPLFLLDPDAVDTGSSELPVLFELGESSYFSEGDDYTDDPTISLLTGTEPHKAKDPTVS

[2] = viability of uninfected HEp-2 cells – cell-based, HTS, cytotoxicity control for RSV inhibitor project, dose response (AID 2410); format: functional; conditions: human respiratory syncytial virus
[3] = molecular target: T2, Rac GTPase-activating protein 1 (Homo sapiens, UniProt Q9H0H5); assay: blockers of MgcRacGAP-driven Rac1 GTP hydrolysis – biochemical, ADP Hunter fluorescence, primary and confirmatory, confirmation (AID 624330); format: functional
T2 sequence (Q9H0H5 whole entry): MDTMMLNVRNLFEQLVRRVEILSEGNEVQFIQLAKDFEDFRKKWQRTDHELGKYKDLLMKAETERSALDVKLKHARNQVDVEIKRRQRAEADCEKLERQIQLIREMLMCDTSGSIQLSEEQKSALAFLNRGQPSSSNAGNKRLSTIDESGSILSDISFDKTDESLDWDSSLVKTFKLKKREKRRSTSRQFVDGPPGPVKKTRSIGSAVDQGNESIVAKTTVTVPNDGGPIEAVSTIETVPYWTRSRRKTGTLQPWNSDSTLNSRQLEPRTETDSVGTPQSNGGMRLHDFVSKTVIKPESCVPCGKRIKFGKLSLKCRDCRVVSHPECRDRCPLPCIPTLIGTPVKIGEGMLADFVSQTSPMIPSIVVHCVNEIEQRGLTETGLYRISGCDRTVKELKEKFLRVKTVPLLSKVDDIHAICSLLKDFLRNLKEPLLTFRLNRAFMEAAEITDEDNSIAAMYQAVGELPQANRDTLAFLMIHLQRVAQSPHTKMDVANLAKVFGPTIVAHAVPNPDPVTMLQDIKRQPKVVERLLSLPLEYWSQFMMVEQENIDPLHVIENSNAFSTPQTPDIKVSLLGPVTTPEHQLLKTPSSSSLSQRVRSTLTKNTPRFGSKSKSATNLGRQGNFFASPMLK

Streptococcus = assay: GAS UMAA2166 growth inhibition – luminescence, BacTiterGlo, counter-screen for streptokinase expression inhibitor project, dose response (AID 1915); format: functional, organism-based;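 also: potency for reduction of bacterial viability or growth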
[4] = test system: Streptococcus sp. 'group A'; assay: Streptococcus pyogenes SK(-)GAS viability under kanamycin – luminescence, BacTiterGlo, confirmation, counter-screen for streptokinase expression inhibitor project, dose response (AID 1900); format: functional, organism-based
Streptokinase A = molecular target: T3, Streptokinase A (Streptococcus pyogenes serotype M1, UniProt P10520); assay: viability-normalized secreted streptokinase activity reduction – plasminogen activation absorbance, OD405, dose response (AID 1914); format: functional, Streptococcus pyogenes M1 GAS;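 also: secreted streptokinase activity via plasminogen activation per viability signal from cell pellet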
T3 sequence (P10520 whole entry): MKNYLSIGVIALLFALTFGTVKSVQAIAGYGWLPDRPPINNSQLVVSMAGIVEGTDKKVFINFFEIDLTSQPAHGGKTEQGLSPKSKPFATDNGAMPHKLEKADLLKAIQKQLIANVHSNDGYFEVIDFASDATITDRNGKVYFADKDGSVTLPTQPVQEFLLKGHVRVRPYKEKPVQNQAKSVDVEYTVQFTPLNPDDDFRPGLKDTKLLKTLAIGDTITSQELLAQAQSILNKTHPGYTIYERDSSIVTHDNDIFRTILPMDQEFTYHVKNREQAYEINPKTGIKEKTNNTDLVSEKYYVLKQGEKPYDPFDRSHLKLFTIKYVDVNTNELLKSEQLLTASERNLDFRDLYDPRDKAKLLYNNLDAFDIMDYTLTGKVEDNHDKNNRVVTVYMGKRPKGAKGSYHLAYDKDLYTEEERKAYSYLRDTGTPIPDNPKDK

[5] = molecular target: T4, Corticotropin-releasing factor receptor 2/Corticotropin-releasing factor-binding protein (Homo sapiens, UniProt P24387+Q13324); assay: activators of CRF receptor 2 with binding protein – uHTS hits, confirmation (AID 602473); format: functional; conditions: read-out: EC50_Mean
T4 sequence (Q13324 whole entry): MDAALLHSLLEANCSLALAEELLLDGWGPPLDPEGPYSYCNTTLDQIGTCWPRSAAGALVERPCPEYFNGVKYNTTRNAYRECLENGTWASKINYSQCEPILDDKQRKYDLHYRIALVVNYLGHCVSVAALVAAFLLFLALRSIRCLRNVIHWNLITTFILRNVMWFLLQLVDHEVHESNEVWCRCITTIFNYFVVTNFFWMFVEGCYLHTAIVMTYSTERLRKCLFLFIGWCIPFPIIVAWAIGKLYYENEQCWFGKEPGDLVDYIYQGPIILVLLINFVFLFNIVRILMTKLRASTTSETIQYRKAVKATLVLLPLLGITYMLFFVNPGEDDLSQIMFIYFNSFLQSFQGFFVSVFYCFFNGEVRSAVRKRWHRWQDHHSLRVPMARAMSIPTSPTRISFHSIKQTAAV
T4 sequence (P24387 whole entry): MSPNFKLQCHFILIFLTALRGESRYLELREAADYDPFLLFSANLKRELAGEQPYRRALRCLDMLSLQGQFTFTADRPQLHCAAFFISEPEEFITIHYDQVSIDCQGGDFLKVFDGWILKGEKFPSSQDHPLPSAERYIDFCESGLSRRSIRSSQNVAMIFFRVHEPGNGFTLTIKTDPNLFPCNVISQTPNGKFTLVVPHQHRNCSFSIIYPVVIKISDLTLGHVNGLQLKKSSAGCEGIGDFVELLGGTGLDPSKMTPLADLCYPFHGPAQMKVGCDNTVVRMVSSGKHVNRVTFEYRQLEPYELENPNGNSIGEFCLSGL

[6] = Luminescence Cell-Based Dose Retest to Confirm Inhibitors of Cancer Stem Cells. [Related pubchem assays (depositor defined):AID2717, AID2721]; format: functional; conditions: Homo sapiens
[7] = Luminescence Cell-Based Dose Response HTS to Identify Activators of Luciferase Translation or Activity in H4 […] Cells. [Related pubchem assays: 1829 (Project Summary), 1814 (Primary HTS)]; format: functional
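For AC50 in this document: cells exposed to compound for roughly 70 hours or longer before luminescence read.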

## NC(=O)Cc1ccc(C(=O)c2ccc(Cl)cc2)s1
[1]
  EC50: > 195 µM (not active)

## CCOC(=O)c1cc(-c2ccccc2)sc1NC(=O)C(C)OC(=O)c1ccncc1 (stereo unspecified)
[2]
  CC50: 47.6 µM (active)

## CCCN1CCC(=O)N([C@H](CSc2ccccc2)Cc2ccccc2)CC1
[1]
  EC50: > 195 µM (not active)

## Cn1c(=O)c2ccccc2n(Cc2ccccc2Cl)c1=O
[1]
  EC50: > 195 µM (not active)

## CC(C)c1ccc(NC(=O)CNCC(c2ccccc2)N(C)C)cc1 (stereo unspecified)
[3]
  IC50: 109 µM (active)

## COc1ccc(NC(=O)CCN2CCN(S(=O)(=O)c3ccc(OC)cc3)CC2)cc1
[1]
  EC50: > 195 µM (not active)

## CCOC(=O)C1CCN(C(=O)COc2cc(C)c(Br)cc2C)CC1
[1]
  EC50: > 195 µM (not active)

## Cc1ccccc1OCC(=O)NCCS(=O)(=O)N1CCN(c2ccc(F)cc2)CC1
[2]
  CC50: 38.1 µM (active)

## Cc1ccc(NC(=O)[C@@H](C)NC(=O)[C@@H]2Cc3ccccc3CN2)cc1
[1]
  EC50: > 195 µM (not active)

## c1cncc(-c2nnc(SCc3nc4ccccc4[nH]3)o2)c1
[1]
  EC50: 126 µM (active)

## O=C(OCCN1CCN(c2ncc(C(F)(F)F)cc2Cl)CC1)c1ccc(Cl)cc1
[1]
  EC50: > 195 µM (not active)

## N#CCCn1nnc(-c2ccccc2F)n1
[1]
  EC50: > 195 µM (not active)

## Cc1ccc(NC(=O)CC2C(=O)N(Cc3ccccc3)C(=S)N2NC(=O)c2ccccc2)c(C)c1 (stereo unspecified)
[2]
  CC50: > 50 µM (active)

## CCc1nc(NCCO)c(C#N)c2c1CCCC2
[2]
  CC50: 30.6 µM (active)

## Cc1csc(Nc2ccc(Cl)cc2)[n+]1-c1ccc(Cl)cc1
Streptococcus
  EC50: > 150 µM (not active)
[4]
  EC50: 12.9 µM (active)
Streptokinase A
  EC50: 29.9 µM (active)

## O=C(c1ccc(F)cc1)N1CCN(c2cc(N3CCCCC3)c(F)cc2[N+](=O)[O-])CC1
[2]
  CC50: 16.6 µM (active)

## CC(C)N(C(=O)CSc1nc(COc2ccccc2)nc2ccccc12)C(C)C
[2]
  CC50: 23.7 µM (active)

## CC(C)(C)Cc1nnc(NS(=O)(=O)c2ccc(F)cc2)s1
[1]
  EC50: > 195 µM (not active)

## COc1ccc2oc(C(=O)OCC(=O)NC3(C#N)CCCC3)c(C)c2c1
Streptococcus
  EC50: > 150 µM (not active)
[4]
  EC50: 57.9 µM (active)
Streptokinase A
  EC50: > 150 µM (not active)

## O=C(CNC1CC1)Nc1cc(C(F)(F)F)ccc1Cl
[3]
  IC50: 123 µM (active)

## CCO[C@H]1OC(C(=O)NCc2ccccc2)=C[C@@H](c2ccc(Br)cc2)[C@@H]1CCCO
[2]
  CC50: 22 µM (active)

## Cn1c(CNC(=O)CNC(=O)c2ccc(F)cc2)cc(=O)n(C)c1=O
Streptococcus
  EC50: > 150 µM (not active)
[4]
  EC50: > 150 µM (not active)
Streptokinase A
  EC50: > 150 µM (not active)

## COc1cc(OC)c(C(=O)Nc2ccc(N(C)C)cc2)cc1OC
[3]
  IC50: 22.1 µM (active)

## Cc1ccc(C(=O)NNC(=S)NC(=O)c2ccc(Cl)cc2Cl)cc1
Streptococcus
  EC50: 3.82 µM (active)
[4]
  EC50: 0.196 µM (active)
[5]
  EC50: 2.78 µM (active)

## COc1nc(-c2ccc(C)cc2)ccc1-c1noc(-c2cccnc2)n1
[2]
  CC50: 31.1 µM (active)

## Nc1nc(CN2CCN(c3ccc(F)cc3)CC2)nc(N2CCCc3ccccc32)n1
Streptococcus
  EC50: > 150 µM (not active)
[4]
  EC50: 2.01 µM (active)
Streptokinase A
  EC50: > 150 µM (not active)

## CCOC(=O)c1sc(NC(=O)c2ccc(S(=O)(=O)N3CCCCCC3)cc2)nc1-c1ccccc1
[2]
  CC50: 7.07 µM (active)

## COc1ccc(C2NS(=O)(=O)N=C2N)cc1 (stereo unspecified)
[1]
  EC50: > 195 µM (not active)

## Cc1ccc(C(=O)Nc2ccc(C(=O)O)cc2NC(=O)c2ccc(C)cc2)cc1
[1]
  EC50: 14.7 µM (active)

## c1ccc(-c2nnc3sc(CN4CCc5ccccc54)cn23)cc1
[6]
  AC50: 7.58 µM (active)

## COC(=O)C1=C(C)N(CCCC(=O)O)C(=O)NC1c1ccc(C#N)cc1 (stereo unspecified)
[1]
  EC50: > 195 µM (not active)

## Cc1cc(F)ccc1S(=O)(=O)NCC1CC2CCC1C2 (stereo unspecified)
[5]
  EC50: > 53 µM (inactive)

## O=C(NC(=S)Nc1ccc(F)cc1)c1ccc2c(c1)OCCO2
[1]
  EC50: > 195 µM (not active)
[5]
  EC50: > 53 µM (inactive)

## CCN(CC)c1ccc(C=C2SC(=S)NC2=O)cc1
[5]
  EC50: 4.11 µM (active)

## CCOc1ccc(NS(=O)(=O)c2ccc(C(=O)NCC(c3cccs3)N3CCOCC3)cc2)cc1 (stereo unspecified)
[5]
  EC50: 5.04 µM (active)

## CC(=O)NC(Cc1ccccc1)C(=O)Oc1ccc2ccccc2c1 (stereo unspecified)
[3]
  IC50: 39.7 µM (active)

## Clc1ccc(/C=C/c2nc(Cl)c(-c3ccc(Cl)cc3)c(Cl)n2)cc1
Streptococcus
  EC50: > 150 µM (not active)
[4]
  EC50: 33 µM (active)
Streptokinase A
  EC50: 10 µM (active)

## CCOc1ccc(/C=N/NC(=S)NC2CC3C=CC2C3)cc1 (stereo unspecified)
Streptococcus
  EC50: > 150 µM (not active)
[4]
  EC50: > 150 µM (not active)
Streptokinase A
  EC50: > 150 µM (not active)

## N#C/C(=C\c1c(Cl)cccc1Cl)c1nc2ccccc2[nH]1
[2]
  CC50: 20.3 µM (active)

## C=CCn1/c(=N/C(=O)C2COc3ccccc3O2)sc2cccc(OC)c21 (stereo unspecified)
[2]
  CC50: 18.4 µM (active)

## Cc1ccc(C(C)C)c(OCc2ccc(C(=O)N/N=C/c3ccc(O)c(O)c3)cc2)c1
[6]
  AC50: 3.23 µM (active)

## Cc1cccc(N2CCC(/N=C/N(C)C)=N2)c1
[3]
  IC50: 29.2 µM (active)

## Cc1cc(N/N=C/c2ccccc2Cl)nc(NCc2ccccc2)n1
[6]
  AC50: 3.88 µM (active)

## COc1cc(/C(C)=N/N2CCN(c3ccccc3OC)CC2)ccc1O
[3]
  IC50: 208 µM (active)

## Cn1c(=O)[nH]c(=O)c2c1[nH]c(=S)n2Cc1ccc(Cl)cc1
[3]
  IC50: 31.7 µM (active)

## CC1Oc2cc3oc4c(O)c5c(cc4c(=O)c3c(O)c2C1(C)C)C=CC(C)(C)O5 (stereo unspecified) [GERONTOXANTHONE A]
Streptococcus
  EC50: 25.9 µM (active)
[2]
  CC50: 14.9 µM (active)
[4]
  EC50: 1.11 µM (active)
[7]
  EC50: 2.13 µM (active)
Streptokinase A
  EC50: 10.7 µM (active)

## Cc1ccsc1/C=C/C1=NCCCN1C [MORANTEL TARTRATE]
[1]
  EC50: > 195 µM (not active)

Source: ChEMBL document CHEMBL1201862, “PubChem BioAssay data set” (2004)
